ChEMBL document CHEMBL1201862, “PubChem BioAssay data set” (2004)
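Cultured in 96-well plates, cells were exposed to test compound for 48 hours across five concentrations. GI50 marks 50% less growth.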 The source made the active and inactive calls. No stated cut-off is given here; in the data, active = GI50 up to about 1.1 µM and inactive = higher.

Experiments:
Test in all cases: NCI tumour cell line growth inhibition, 48 h
CAKI-1 = system: CAKI-1
COLO 205 = system: COLO 205
HCT-15 = system: HCT-15
HOP-62 = system: HOP-62
HT-29 = system: HT-29
IGROV-1 = system: IGROV-1
MDA-MB-231 = system: MDA-MB-231
NCI-H226 = system: NCI-H226
NCI-H522 = system: NCI-H522
OVCAR-5 = system: OVCAR-5
RPMI-8226 = system: RPMI-8226
SK-MEL-5 = system: SK-MEL-5
SK-OV-3 = system: SK-OV-3
SNB-19 = system: SNB-19
TK-10 = system: TK-10
U-251 = system: U-251
UACC-257 = system: UACC-257
UACC-62 = system: UACC-62
UO-31 = system: UO-31
RXF 393 = system: RXF 393

SMILES	GI50 (CAKI-1)	GI50 (COLO 205)	GI50 (HCT-15) [µM]	GI50 (HOP-62)	GI50 (HT-29)	GI50 (IGROV-1)	GI50 (MDA-MB-231)	GI50 (NCI-H226)	GI50 (NCI-H522)	GI50 (OVCAR-5)	GI50 (RPMI-8226)	GI50 (SK-MEL-5)	GI50 (SK-OV-3)	GI50 (SNB-19)	GI50 (TK-10)	GI50 (U-251)	GI50 (UACC-257)	GI50 (UACC-62)	GI50 (UO-31)	GI50 (RXF 393)
O=S(=O)([C-]([I+]c1ccccc1)S(=O)(=O)C(F)(F)C(F)(F)C(F)(F)C(F)(F)F)C(F)(F)C(F)(F)C(F)(F)C(F)(F)F	13.2 µM (inactive)	6.64 µM (inactive)	15.2	16.8 µM (inactive)	17.4 µM (inactive)	19.1 µM (inactive)	24.1 µM (inactive)	3.97 µM (inactive)	2.49 µM (inactive)	17.2 µM (inactive)	3.54 µM (inactive)	14.4 µM (inactive)	16.7 µM (inactive)	15.2 µM (inactive)	16.3 µM (inactive)	14.4 µM (inactive)	17.6 µM (inactive)	17.9 µM (inactive)	13.2 µM (inactive)	–
O=[N+]([O-])/C(C(Cl)=C(Cl)Cl)=C(\Nc1cccc2cccnc12)SCc1ccccc1	20.7 µM (inactive)	18.8 µM (inactive)	19.9	15.8 µM (inactive)	23.6 µM (inactive)	–	27.3 µM (inactive)	20.3 µM (inactive)	–	30.8 µM (inactive)	22.3 µM (inactive)	–	15.8 µM (inactive)	16.7 µM (inactive)	–	16.1 µM (inactive)	21.5 µM (inactive)	23.3 µM (inactive)	18.3 µM (inactive)	–
COC(O)C(=O)c1c2c(cc3c1CCC3)CCC2 (centres undefined)	> 100 µM (inactive)	> 100 µM (inactive)	> 100	> 100 µM (inactive)	> 100 µM (inactive)	> 100 µM (inactive)	> 100 µM (inactive)	> 100 µM (inactive)	> 100 µM (inactive)	> 100 µM (inactive)	55.1 µM (inactive)	> 100 µM (inactive)	> 100 µM (inactive)	> 100 µM (inactive)	> 100 µM (inactive)	> 100 µM (inactive)	> 100 µM (inactive)	> 100 µM (inactive)	> 100 µM (inactive)	–
CCCCCCC(=O)C/C(CCC(=O)N(Cc1ccccc1)Cc1ccccc1)=N\Nc1ccc([N+](=O)[O-])cc1[N+](=O)[O-]	> 100 µM (inactive)	41.1 µM (inactive)	42.5	> 100 µM (inactive)	89.9 µM (inactive)	> 100 µM (inactive)	–	> 100 µM (inactive)	23.7 µM (inactive)	> 100 µM (inactive)	31.9 µM (inactive)	55.5 µM (inactive)	> 100 µM (inactive)	> 100 µM (inactive)	> 100 µM (inactive)	54.1 µM (inactive)	48 µM (inactive)	16.2 µM (inactive)	51.6 µM (inactive)	> 100 µM (inactive)
Cc1ccc(Nc2nc(=O)[nH]c(=O)[nH]2)cc1N	> 100 µM (inactive)	> 100 µM (inactive)	> 100	> 100 µM (inactive)	> 100 µM (inactive)	> 100 µM (inactive)	> 100 µM (inactive)	> 100 µM (inactive)	> 100 µM (inactive)	> 100 µM (inactive)	> 100 µM (inactive)	> 100 µM (inactive)	> 100 µM (inactive)	> 100 µM (inactive)	> 100 µM (inactive)	27.5 µM (inactive)	> 100 µM (inactive)	> 100 µM (inactive)	–	–
COc1c2nc(CCl)[nH]c(=O)c2c(OC)c2nc(CCl)[nH]c(=O)c12	> 100 µM (inactive)	> 100 µM (inactive)	> 100	> 100 µM (inactive)	> 100 µM (inactive)	> 100 µM (inactive)	–	> 100 µM (inactive)	> 100 µM (inactive)	> 100 µM (inactive)	> 100 µM (inactive)	> 100 µM (inactive)	> 100 µM (inactive)	> 100 µM (inactive)	> 100 µM (inactive)	> 100 µM (inactive)	> 100 µM (inactive)	> 100 µM (inactive)	> 100 µM (inactive)	> 100 µM (inactive)
COC(=O)N1CCc2c(nc(N(C)CCO)[nH]c2=O)C1	> 100 µM (inactive)	> 100 µM (inactive)	> 100	> 100 µM (inactive)	> 100 µM (inactive)	> 100 µM (inactive)	–	> 100 µM (inactive)	> 100 µM (inactive)	> 100 µM (inactive)	> 100 µM (inactive)	> 100 µM (inactive)	> 100 µM (inactive)	> 100 µM (inactive)	> 100 µM (inactive)	> 100 µM (inactive)	> 100 µM (inactive)	> 100 µM (inactive)	> 100 µM (inactive)	> 100 µM (inactive)
Nc1ccccc1C(=O)CCc1c[nH]c2ccccc12	–	–	93.3	32.2 µM (inactive)	> 100 µM (inactive)	35.7 µM (inactive)	> 100 µM (inactive)	> 100 µM (inactive)	> 100 µM (inactive)	> 100 µM (inactive)	> 100 µM (inactive)	–	27 µM (inactive)	92.3 µM (inactive)	> 100 µM (inactive)	27.4 µM (inactive)	> 100 µM (inactive)	25.1 µM (inactive)	5.4 µM (inactive)	–
